Measured values taken from ChEMBL document CHEMBL1123653 (J Med Chem, 1987).

Columns and labels:
[1] = molecular target: T1, Serotonin 2 (5-HT2) receptor (Rattus norvegicus, UniProt P30994+P08909+P14842)
[2] = molecular target: T2, Serotonin 1 (5-HT1) receptor (Rattus norvegicus, UniProt P28564+P30940+P19327+P28565)
[3] = molecular target: T3, 5-hydroxytryptamine receptor 1A (Rattus norvegicus, UniProt P19327)
T3 sequence (P19327 whole entry): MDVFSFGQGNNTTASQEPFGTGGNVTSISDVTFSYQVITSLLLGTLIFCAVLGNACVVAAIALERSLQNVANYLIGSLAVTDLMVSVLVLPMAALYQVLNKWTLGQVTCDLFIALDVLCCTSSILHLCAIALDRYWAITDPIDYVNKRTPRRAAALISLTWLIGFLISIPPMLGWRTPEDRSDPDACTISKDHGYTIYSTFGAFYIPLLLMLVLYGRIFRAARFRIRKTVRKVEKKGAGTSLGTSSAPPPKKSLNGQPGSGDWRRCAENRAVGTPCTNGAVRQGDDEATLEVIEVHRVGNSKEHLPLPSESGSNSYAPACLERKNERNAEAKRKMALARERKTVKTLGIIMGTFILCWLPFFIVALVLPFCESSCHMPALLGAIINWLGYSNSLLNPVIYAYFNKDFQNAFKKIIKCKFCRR

[4] = molecular target: T4, 5-hydroxytryptamine receptor 1B (Rattus norvegicus, UniProt P28564)
T4 sequence (P28564 whole entry): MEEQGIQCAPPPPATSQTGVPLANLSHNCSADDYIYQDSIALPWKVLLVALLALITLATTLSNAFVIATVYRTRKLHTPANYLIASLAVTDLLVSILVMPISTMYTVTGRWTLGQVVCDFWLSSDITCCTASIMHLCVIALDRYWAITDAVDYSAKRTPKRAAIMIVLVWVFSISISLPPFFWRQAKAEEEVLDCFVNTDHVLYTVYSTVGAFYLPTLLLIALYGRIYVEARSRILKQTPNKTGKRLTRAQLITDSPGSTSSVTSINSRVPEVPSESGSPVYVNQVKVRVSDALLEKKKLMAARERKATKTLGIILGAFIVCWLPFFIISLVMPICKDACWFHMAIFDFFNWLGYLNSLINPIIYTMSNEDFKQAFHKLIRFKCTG

[5] = molecular target: T2, Serotonin 1 (5-HT1) receptor; test: Binding affinity towards 5-hydroxytryptamine 1 receptor was determined; type: protein assay
[6] = molecular target: T1, Serotonin 2 (5-HT2) receptor; test: Binding affinity to rat cortical membranes at 5-hydroxytryptamine 2 receptor binding site by using [3H]- DOB as a radioligand.
[7] = molecular target: T1, Serotonin 2 (5-HT2) receptor; test: Binding affinity to rat cortical membranes at 5-hydroxytryptamine 2 receptor binding site by using [3H]- DOB as a radioligand
[8] = molecular target: T1, Serotonin 2 (5-HT2) receptor; remark: listed apart in the source
[9] = molecular target: T4, 5-hydroxytryptamine receptor 1B; remark: listed apart in the source
Description: Binding affinity towards 5-HT1B was determined

[10] = molecular target: T1, Serotonin 2 (5-HT2) receptor; remark: listed apart in the source
[11] = molecular target: T1, Serotonin 2 (5-HT2) receptor; remark: listed apart in the source

SMILES | Ki [1] | Ki [2] | Ki [3] | Ki [4] | further results
COc1cc(C[C@H](C)N)c(OC)cc1I | 35 nM | 920 nM |  |  | 
CN[C@H](C)Cc1cc(OC)c(C)cc1OC | 260 nM | 4300 nM |  |  | 
COc1cc([N+](=O)[O-])c(OC)cc1C[C@@H](C)N | 210 nM | 13200 nM |  |  | 
NCCc1c[nH]c2ccc(C(N)=O)cc12 |  |  | 0.2 nM | 5 nM | 
NCCc1c[nH]c2cccc(O)c12 | 725 nM |  | 95 nM | 1050 nM | 
CNC(C)Cc1cc(OC)c(C)cc1OC (configuration not stated) | 415 nM | 3870 nM |  |  | 
NCCc1c[nH]c2cc(O)ccc12 | 11500 nM |  | 1590 nM | 5890 nM | 
C[C@@H](N)Cc1ccc2c(c1)OCO2 |  | 13000 nM |  |  | 
COc1cc(CC(C)N)c(OC)cc1F (configuration not stated) | 1110 nM | 3370 nM |  |  | 
FC(F)(F)c1cccc(N2CCNCC2)c1 |  | 20 nM | 1950 nM | 30 nM | 
c1ccc2c(N3CCNCC3)cccc2c1 |  |  |  |  | Ki [5]: 5 nM
CNCCc1c[nH]c2ccc(O)cc12 | 180 nM |  | 5 nM | 45 nM | 
COc1ccc(CC(C)N)cc1OC (configuration not stated) | 43300 nM | 64600 nM |  |  | 
c1ccc2cc(N3CCNCC3)ccc2c1 |  |  |  |  | Ki [5]: 265 nM
COc1cc(C[C@@H](C)N)c(OC)cc1C |  | 3550 nM |  |  | 
COc1cc(C[C@H](C)N)c(OC)cc1Br |  | 5000 nM |  |  | 
CCc1cc(OC)c(CC(C)N)cc1OC (configuration not stated) |  | 4570 nM |  |  | 
COc1cc([N+](=O)[O-])c(OC)cc1CC(C)N (configuration not stated) | 300 nM | 14100 nM |  |  | 
COc1cc(OC)c(OC)cc1CC(C)N (configuration not stated) |  | 46400 nM |  |  | 
CCCc1cc(OC)c(CC(C)N)cc1OC (configuration not stated) | 69 nM | 3170 nM |  |  | 

SMILES | Ki [1] | Ki [2] | Ki [3] | Ki [4] | further results
CC(C)NCC(O)COc1cccc2[nH]ccc12 (single isomer, unassigned; (-)) [PINDOLOL] |  |  | 20 nM |  | 
COc1cc(C[C@@H](C)N)c(OC)cc1Br (stereo in doubt; form 1) |  | 4200 nM |  |  | 
COc1cc(C[C@@H](C)N)c(OC)cc1Br (stereo in doubt; form 2) |  | 4200 nM |  |  | 
CCCN(CCC)C1CCc2cccc(O)c2C1 (configuration not stated) [8-OH-DPAT] | 5500 nM |  |  |  | Ki [6]: 700 nM
CN(C)CCc1c[nH]c2ccc(O)cc12 [BUFOTENINE] | 380 nM |  | 259 nM | 910 nM | 
Clc1cccc(N2CCNCC2)c1 [CHLOROPHENYLPIPERAZINE] |  |  | 2400 nM | 75 nM | 
CN(C)CCCSc1ccccc1NC(=O)/C=C/c1ccccc1 [CINANSERIN] | 4 nM | 3500 nM |  | 1000 nM | Ki [7]: 4 nM; Ki [8]: 4 nM
COc1cc(CC(C)N)c(OC)cc1C (configuration not stated) [DOM] |  | 2890 nM |  |  | 
O=C1c2ccccc2S(=O)(=O)N1CCCCN1CCN(c2ncccn2)CC1 [IPSAPIRONE] |  |  |  |  | IC50 [9]: 26000 nM; IC50 [10]: 10000 nM
O=C(c1ccc(F)cc1)C1CCN(CCn2c(=O)[nH]c3ccccc3c2=O)CC1 [KETANSERIN] |  |  | 1900 nM | 1900 nM | 
COc1ccc2[nH]cc(CCN(C)C)c2c1 [MEBUFOTENIN] |  | 50 nM | 20 nM | 90 nM | 
CN1C[C@@H](NS(=O)(=O)N(C)C)C[C@@H]2c3cccc4c3c(cn4C)C[C@H]21 [MESULERGINE] |  |  | 300 nM | 13000 nM | 
CN1C[C@H](CNC(=O)OCc2ccccc2)C[C@@H]2c3cccc4c3c(cn4C)C[C@H]21 [METERGOLINE] |  | 20 nM | 6 nM | 25 nM | 
COc1ccc(CC(C)N)cc1 (configuration not stated) [PARA-METHOXYAMPHETAMINE] | 33600 nM | 79400 nM |  |  | 
c1ccc(N2CCNCC2)cc1 [PHENYLPIPERAZINE] |  |  |  |  | Ki [5]: 135 nM
Cc1nc2ccccn2c(=O)c1CCN1CCC(C(=O)c2ccc(F)cc2)CC1 [PIRENPERONE] |  |  | 1700 nM | 6600 nM | Ki [8]: 1 nM; Ki [11]: 0.3 nM
c1ccc2nc(N3CCNCC3)ccc2c1 [QUIPAZINE] |  |  |  | 320 nM | Ki [7]: 17 nM; Ki [8]: 645 nM
COc1ccc2[nH]cc(C3=CCNCC3)c2c1 [RU-24969] |  |  |  | 4 nM | 
O=C(CCCN1CCC2(CC1)C(=O)NCN2c1ccccc1)c1ccc(F)cc1 [SPIPERONE] |  | 160 nM | 40 nM | 4800 nM | 
NCCc1c[nH]c2ccccc12 [TRYPTAMINE] | 2895 nM |  | 170 nM |  | Ki [7]: 50 nM
